From patent publication US8246944B2, “Immunotherapeutic agent for the combined treatment of tuberculosis in association with other drugs” (Archivel Farma, S.L., priority 2003, dated 2012) come the findings set out here.

The subject of test [1] is virulent strain of Mycobacterium tuberculosis. Description: […]; bacillary concentration in left lung and spleen. Conditions: Control: isoniazid alone 25 mg/kg per day, 5 days per week, weeks 9-17. The test is classed as in vivo, C57BL/6 mice.
Test [2] shares this test system. Described as above. The test is classed as in vivo, BALB/c mice. The following applies: Control: isoniazid only 25 mg/kg per day, 5 days per week, 6 weeks (weeks 9-15); killed week 15.

Each structure is given as a SMILES string.

As for `NNC(=O)c1ccncc1` [isoniazid], in test [1] (sacrificed week 15), the “Bacillary concentration, lungs, Week 15” value came out at 2.34 ± 0.24 log10 UFC/mL and the “Bacillary concentration, spleen, Week 15” value came out at 1.47 ± 0.44 log10 UFC/mL. In test [1] (sacrificed week 28), the “Bacillary concentration, lungs, Week 28” value came out at 3.86 ± 0.41 log10 UFC/mL and the “Bacillary concentration, spleen, Week 28” value came to 3.84 ± 0.48 log10 UFC/mL. In test [2], the “Bacillary concentration, Lung” value came out at 7.5 ± 2.89 UFC/mL and the “Bacillary concentration, Spleen” value worked out at 0.75 ± 0.33 UFC/mL.
